Paper PMC2263054, “Functional evolution of the vitamin D and pregnane X receptors” (BMC Evolutionary Biology, 2007)
Read-outs that look alike come from different tables or passages of the source.

How the values were obtained:
Human VDR = target: T1, Human VDR (Homo sapiens, UniProt P11473); test: luciferase reporter transactivation assay in HepG2-NTCP cells, full-length hVDR with CYP3A4-PXRE-Luc
T1 sequence (P11473 1-427): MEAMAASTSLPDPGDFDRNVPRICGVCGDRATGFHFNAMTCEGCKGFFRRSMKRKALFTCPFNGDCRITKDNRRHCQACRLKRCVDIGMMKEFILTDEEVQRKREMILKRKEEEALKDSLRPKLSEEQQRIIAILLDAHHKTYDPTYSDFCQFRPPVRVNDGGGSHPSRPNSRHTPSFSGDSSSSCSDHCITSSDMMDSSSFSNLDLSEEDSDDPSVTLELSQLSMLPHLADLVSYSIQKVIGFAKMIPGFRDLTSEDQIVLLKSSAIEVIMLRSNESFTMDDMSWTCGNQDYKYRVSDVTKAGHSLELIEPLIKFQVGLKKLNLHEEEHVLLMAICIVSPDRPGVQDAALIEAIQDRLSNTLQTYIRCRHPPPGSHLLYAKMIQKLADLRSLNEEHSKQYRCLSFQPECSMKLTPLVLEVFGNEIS

Mouse VDR = target: T2, Mouse VDR (Mus musculus, UniProt P48281); test: luciferase reporter transactivation assay in HepG2-NTCP cells, full-length mVDR with CYP3A4-PXRE-Luc
T2 sequence (P48281 1-422): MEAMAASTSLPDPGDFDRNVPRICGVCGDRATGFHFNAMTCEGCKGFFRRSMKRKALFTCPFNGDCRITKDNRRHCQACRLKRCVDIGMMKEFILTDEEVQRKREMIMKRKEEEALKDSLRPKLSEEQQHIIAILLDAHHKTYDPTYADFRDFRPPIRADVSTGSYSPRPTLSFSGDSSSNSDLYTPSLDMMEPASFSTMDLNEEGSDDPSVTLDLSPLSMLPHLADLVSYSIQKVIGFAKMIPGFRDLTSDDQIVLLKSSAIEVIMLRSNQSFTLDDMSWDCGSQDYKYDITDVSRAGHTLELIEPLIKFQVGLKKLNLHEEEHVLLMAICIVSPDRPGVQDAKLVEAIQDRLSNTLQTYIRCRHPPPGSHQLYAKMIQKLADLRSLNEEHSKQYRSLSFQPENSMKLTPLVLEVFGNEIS

Xenopus laevis VDR = target: T3, Xenopus laevis VDR (Xenopus laevis, UniProt O13124); test: luciferase reporter transactivation assay in HepG2-NTCP cells, GAL4/xlVDR LBD chimera with tk-UAS-Luc; type: cell-based; details: for EC50: HepG2-NTCP cells, luciferase reporter, read-out: Xenopus VDR EC50 ± SD; for Effect on Xenopus laevis VDR: screening for activators, at least three concentrations of each drug
T3 sequence (O13124 90-422): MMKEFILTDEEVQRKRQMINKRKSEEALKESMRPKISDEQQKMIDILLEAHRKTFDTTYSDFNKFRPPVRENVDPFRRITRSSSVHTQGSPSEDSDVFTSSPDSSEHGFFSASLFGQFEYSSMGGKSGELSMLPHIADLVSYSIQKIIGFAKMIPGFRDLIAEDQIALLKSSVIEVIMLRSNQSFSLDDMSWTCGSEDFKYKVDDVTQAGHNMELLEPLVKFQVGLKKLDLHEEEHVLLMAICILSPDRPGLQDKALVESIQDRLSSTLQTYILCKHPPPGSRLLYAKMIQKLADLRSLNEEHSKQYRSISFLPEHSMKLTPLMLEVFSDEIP

Zebrafish VDR = target: T4, Zebrafish VDR (Danio rerio, UniProt Q9PTN2); test: luciferase reporter transactivation assay in HepG2-NTCP cells, GAL4/zfVDR LBD chimera with tk-UAS-Luc; type: cell-based; details: for EC50: HepG2-NTCP cells, luciferase reporter, read-out: Zebrafish VDR EC50 ± SD; for Effect on zebrafish VDR: screening for activators, at least three concentrations of each drug
T4 sequence (Q9PTN2 121-453): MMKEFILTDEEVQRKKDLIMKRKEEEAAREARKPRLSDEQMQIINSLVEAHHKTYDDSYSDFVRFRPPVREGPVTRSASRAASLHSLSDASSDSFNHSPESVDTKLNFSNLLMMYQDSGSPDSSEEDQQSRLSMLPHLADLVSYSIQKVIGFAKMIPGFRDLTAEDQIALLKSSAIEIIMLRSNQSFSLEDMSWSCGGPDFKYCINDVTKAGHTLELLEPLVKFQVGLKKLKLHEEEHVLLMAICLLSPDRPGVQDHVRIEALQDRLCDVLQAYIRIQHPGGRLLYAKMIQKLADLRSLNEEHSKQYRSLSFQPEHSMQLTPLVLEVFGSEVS

Sea lamprey VDR = target: T5, Sea lamprey VDR (Petromyzon marinus, UniProt Q7ZZY9); type: cell-based; details: for Effect on sea lamprey VDR: screening for activators, at least three concentrations of each drug
T5 sequence (Q7ZZY9 92-406): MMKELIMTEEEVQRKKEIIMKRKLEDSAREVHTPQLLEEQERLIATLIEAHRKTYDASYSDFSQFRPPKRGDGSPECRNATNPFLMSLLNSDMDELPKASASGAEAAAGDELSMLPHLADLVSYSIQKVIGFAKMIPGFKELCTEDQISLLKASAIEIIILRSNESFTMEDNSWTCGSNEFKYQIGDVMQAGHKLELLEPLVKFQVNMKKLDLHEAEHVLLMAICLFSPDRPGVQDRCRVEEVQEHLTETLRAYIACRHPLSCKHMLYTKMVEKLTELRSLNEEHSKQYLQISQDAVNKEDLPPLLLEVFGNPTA

[1] = relative to maximal reference compound (1 μM calcitriol, efficacy = 1.0)

Structure (SMILES) | Effect on Xenopus laevis VDR (Xenopus laevis VDR) | Effect on zebrafish VDR (Zebrafish VDR) | Effect on sea lamprey VDR (Sea lamprey VDR) | also measured
O=Cc1c2[nH]c3ccccc3c2cc2[nH]c3ccccc3c12 [6-Formylindolo-[3,2-b]-carbazole] | – | – | – | Human VDR relative efficacy (Human VDR; [1]): ~0.12; Mouse VDR relative efficacy (Mouse VDR; relative to maximal reference compound (0.5 μM calcitriol, efficacy = 1.0)): ~0.08; Xenopus VDR relative efficacy (Xenopus laevis VDR; [1]): ~0.10; Zebrafish VDR relative efficacy (Zebrafish VDR; [1]): < 0.03; Ciona VDR/PXR relative efficacy (Ciona VDR/PXR; relative to maximal reference compound (20 μM 6-formylindolo-[3,2-b]-carbazole, efficacy = 1.0)): 1.0; activation of ciVDR/PXR (Ciona VDR/PXR; unpublished data of the authors): activated; Sea lamprey VDR relative efficacy (Sea lamprey VDR): 0.25
C=C1/C(=C\C=C2/CCC[C@]3(C)[C@@H]([C@H](C)/C=C/[C@H](C)C(C)C)CC[C@@H]23)C[C@@H](O)C[C@@H]1O [1α-Hydroxyvitamin D2] | – | – | – | EC50 (Human VDR): 0.013 ± 0.0012 µM; EC50 (Mouse VDR): 0.0008 ± 0.0001 µM; EC50 (Xenopus laevis VDR): 0.624 ± 0.049 µM; EC50 (Zebrafish VDR): 0.026 ± 0.0017 µM
NC(=O)N1c2ccccc2C=Cc2ccccc21 [carbamazepine] | – | – | – | activation of ciVDR/PXR (Ciona VDR/PXR): activated
CCCCOC(=O)c1ccc(N)cc1 [n-Butyl 4-aminobenzoate] | No effect | No effect | No effect | activation of ciVDR/PXR (Ciona VDR/PXR): activated
C=C1/C(=C\C=C2/CCC[C@]3(C)[C@@H]([C@H](C)CCCC(C)C)CC[C@@H]23)C[C@@H](O)C[C@@H]1O [1α-Hydroxyvitamin D3] | – | – | – | EC50 (Human VDR): 0.0043 ± 0.0005 µM; EC50 (Mouse VDR): 0.0003 ± 4e-05 µM; EC50 (Xenopus laevis VDR): 0.157 ± 0.01 µM; EC50 (Zebrafish VDR): 0.018 ± 0.0014 µM
C#C[C@]1(O)CC[C@H]2[C@@H]3CCc4cc(O)ccc4[C@H]3CC[C@@]21C [Ethinyl estradiol] | No effect | No effect | No effect | –
C[C@]12CC[C@@H]3c4ccc(O)cc4CC[C@H]3[C@@H]1CC[C@@H]2O [17b-Estradiol, 17β-estradiol] | No effect | No effect | No effect | Effect on Xenopus laevis VDR (Xenopus laevis VDR; listed as 17β-estradiol): None of these three VDRs were activated; Effect on zebrafish VDR (Zebrafish VDR; listed as 17β-estradiol): None of these three VDRs were activated; Effect on sea lamprey VDR (Sea lamprey VDR; listed as 17β-estradiol): None of these three VDRs were activated
CC(O)C1CCC2C3CCC4CC(O)CCC4(C)C3CCC12C (centres unmarked) [5a-pregnan-3a,20a-diol] | No effect | No effect | No effect | –
CC1=C(/C=C/C(C)=C\C=C\C(C)=C\C(=O)O)C(C)(C)CCC1 [9-cis Retinoic acid] | No effect | No effect | No effect | –
C[C@@]12C=CC[C@H]1[C@@H]1CCC3=CC(=O)CC[C@]3(C)[C@H]1CC2 [4,16-Androstadien-3-one] | No effect | No effect | No effect | –
C[C@]12CC[C@@H]3c4ccc(OS(=O)(=O)O)cc4CC[C@H]3[C@@H]1CC[C@@H]2O [Estradiol 3-sulfate] | No effect | No effect | No effect | –
CC(=O)[C@@]1(O)CC[C@H]2[C@@H]3CC=C4C[C@@H](O)CC[C@]4(C)[C@H]3CC[C@@]21C [17-Hydroxypregnenolone] | No effect | No effect | No effect | –
CC(C)=CCC[C@@H](C)[C@H]1CC[C@@]2(C)[C@@H]3CC[C@H]4C(C)(C)[C@@H](O)CC[C@@]45C[C@@]35CC[C@]12C [Cycloartenol] | No effect | No effect | No effect | –
C[C@]12CCC(=O)C=C1CC[C@@H]1[C@@H]2[C@@H](O)C[C@@]2(C)[C@H]1CC[C@]2(O)C(=O)CO [Cortisol] | No effect | No effect | No effect | –
C[C@H](CCC(=O)NCCS(=O)(=O)O)[C@H]1CC[C@H]2[C@@H]3[C@H](O)C[C@@H]4C[C@H](O)CC[C@]4(C)[C@H]3CC[C@]12C [Taurochenodeoxycholic acid] | No effect | No effect | No effect | –
C[C@]12CC[C@@H]3c4ccc(O[C@@H]5O[C@H](C(=O)O)[C@@H](O)[C@H](O)[C@H]5O)cc4CC[C@H]3[C@@H]1CC[C@@H]2O [Estradiol 3-glucuronide] | No effect | No effect | No effect | –
CC(CCC(=O)NCC(=O)O)C1CCC2C3CCC4CC(O)CCC4(C)C3CC(O)C12C (centres unmarked) [Glycodeoxycholic acid] | No effect | No effect | No effect | –
C[C@@]12C=CC[C@H]1[C@@H]1CC=C3C[C@@H](O)CC[C@]3(C)[C@H]1CC2 [5,16-Androstadien-3b-ol] | No effect | No effect | No effect | –
CCOP(=O)(OCC)C(=Cc1cc(C(C)(C)C)c(O)c(C(C)(C)C)c1)P(=O)(OCC)OCC [SR12813] | No effect | No effect | No effect | –
C=CC[C@@H]1[C@H](O)CC[C@@]2(C)[C@H]1CC[C@@H]1[C@@H]2CC[C@]2(C)[C@@H]([C@H](C)CCCC(C)C)CC[C@@H]12 [LY 295427] | No effect | No effect | No effect | –
C[C@]12CC[C@@H](O)C[C@H]1CC[C@@H]1[C@@H]2C(=O)C[C@]2(C)C(=O)CC[C@@H]12 [5b-Androstan-3a-ol-11,17-one] | No effect | No effect | No effect | –
